US20260274833A1 (NiKang Therapeutics, Inc., priority 2022, published 2026)

target: T1, CDK2 (Homo sapiens, UniProt P24941); test: Phospho-RB measurement in OVCAR3 cells (HTRF phospho-RB cellular kit); format: cell-based; conditions: inhibition of RB phosphorylation at S807/811 (HTRF, TR-FRET ratio 665/620), 24 h compound treatment, 0.3 to 10,000 nM
T1 construct: endogenous in cells; host or cells: OVCAR3 cells
Method in brief: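 IC50 came from a four-parameter logistic fit of the DMSO-normalized TR-FRET ratio (665/620 nm). That ratio reflects RB phosphorylation at S807/811, read with an HTRF antibody pair 4 h after adding lysate at room temperature.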

| SMILES | IC50 [nM] |
| --- | --- |
| CC(C)(C)c1nc(-c2cccc(NS(=O)(=O)N3CCc4ccc(C#N)cc43)c2F)c(-c2ccnc(Nc3ccc(S(C)(=O)=O)cc3)n2)s1 [Example 242, N-(3-(2-(tert-butyl)-5-(2-((4-(methylsulfonyl)-phenyl)amino)-pyrimidin-4-yl)thiazol-4-yl)-2-fluoro-phenyl)-6-cyanoindoline-1-sulfonamide] | 302 |
| CN(C)CCOc1cccc2c1CN(S(=O)(=O)Nc1cccc(-c3nc(C(C)(C)C)sc3-c3ccnc(NC4CCN(S(C)(=O)=O)CC4)n3)c1F)C2 [Example 150, N-(3-(2-(tert-butyl)-5-(2-((1-(methylsulfonyl)piperidin-4-yl)amino)-pyrimidin-4-yl)thiazol-4-yl)-2-fluoro-phenyl)-4-(2-(dimethylamino)-ethoxy)-isoindoline-2-sulfonamide] | 1840 |
| O=S1(=O)CC2(CC(Nc3nccc(-c4sc(C5(C(F)(F)F)CC5)nc4-c4cccc(NS(=O)(=O)N5CCc6ccc(Cl)cc65)c4F)n3)C2)C1 [Example 287, 6-chloro-N-(3-(5-(2-((2,2-dioxido-2-thiaspiro[3.3]heptan-6-yl)amino)-pyrimidin-4-yl)-2-(1-(trifluoromethyl)-cyclopropyl)thiazol-4-yl)-2-fluoro-phenyl)indoline-1-sulfonamide] | 347 |
| COc1ccc2c(c1)N(S(=O)(=O)Nc1cccc(-c3nc(C45CC(C4)C5)sc3-c3ccnc(NC4CC5(C4)CS(=O)(=O)C5)n3)c1F)CC2 [Example 20, N-(3-(2-(bicyclo [1.1.1]pentan-1-yl)-5-(2-((2,2-dioxido-2-thiaspiro[3.3]heptan-6-yl)amino)-pyrimidin-4-yl)thiazol-4-yl)-2-fluorophenyl)-6-methoxyindoline-1-sulfonamide] | 208 |
| O=S1(=O)CC2(CC(Nc3nccc(-c4sc(C56CC(C5)C6)nc4-c4cccc(NS(=O)(=O)N5CCc6ccncc65)c4F)n3)C2)C1 [Example 264, N-(3-(2-(bicyclo [1.1.1]pentan-1-yl)-5-(2-((2,2-dioxido-2-thiaspiro[3.3]heptan-6-yl)amino)-pyrimidin-4-yl)thiazol-4-yl)-2-fluorophenyl)-2,3-dihydro-1H-pyrrolo[2,3-c]pyridine-1-sulfonamide] | 1830 |
| CC(C)(C)c1nc(-c2cccc(NS(=O)(=O)N3CCc4ccccc4C3)c2F)c(-c2ccnc(NC3CCN(S(=O)(=O)N4CCNCC4)CC3)n2)s1 [Example 114, N-(3-(2-(tert-butyl)-5-(2-((1-(piperazin-1-ylsulfonyl)piperidin-4-yl)amino)-pyrimidin-4-yl)thiazol-4-yl)-2-fluoro-phenyl)-3,4-dihydro-isoquinoline-2(1H)-sulfonamide] | 276 |
| CC(C)(C)c1nc(-c2cccc(NS(=O)(=O)N3Cc4cccnc4C3)c2F)c(-c2ccnc(NC3CCN(S(=O)(=O)N4CCNCC4)CC3)n2)s1 [Example 132, N-(3-(2-(tert-butyl)-5-(2-((1-(piperazin-1-ylsulfonyl)piperidin-4-yl)amino)-pyrimidin-4-yl)thiazol-4-yl)-2-fluoro-phenyl)-5,7-dihydro-6H-pyrrolo[3,4-b]-pyridine-6-sulfonamide] | 310 |
| CC1c2ccccc2CN1S(=O)(=O)Nc1cccc(-c2nc(C(C)(C)C)sc2-c2ccnc(NC3CCN(S(C)(=O)=O)CC3)n2)c1F (stereo not shown) [Example 109, N-(3-(2-(tert-butyl)-5-(2-((1-(methylsulfonyl)-piperidin-4-yl)amino)-pyrimidin-4-yl)thiazol-4-yl)-2-fluoro-phenyl)-1-methylisoindoline-2-sulfonamide] | 210 |
| CNCc1cccc2c1CCN2S(=O)(=O)Nc1cccc(-c2nc(C(C)(C)C)sc2-c2ccnc(NC3CCN(S(C)(=O)=O)CC3)n2)c1F [Example 134, N-(3-(2-(tert-butyl)-5-(2-((1-(methylsulfonyl)-piperidin-4-yl)amino)-pyriidin-4-yl)thiazol-4-yl)-2-fluoro-phenyl)-4-((methylamino)methyl)-indoline-1-sulfonamide] | 589 |
| CNC(=O)c1ccc2c(c1)N(S(=O)(=O)Nc1cccc(-c3nc(C(C)(C)C)sc3-c3ccnc(NC4CC5(C4)CS(=O)(=O)C5)n3)c1F)CC2 [Example 203, 1-(N-(3-(2-(tert-butyl)-5-(2-((2,2-dioxido-2-thiaspiro[3.3]heptan-6-yl)amino)pyrimidin-4-yl)thiazol-4-yl)-2-fluorophenyl)sulfamoyl)-N-methyl-indoline-6-carboxamide] | 931 |
| C[C@@H]1c2ccccc2CN1S(=O)(=O)Nc1cccc(-c2nc(C(C)(C)C)sc2-c2ccnc(NC3CCN(S(C)(=O)=O)CC3)n2)c1F [Example 130, (R)-N-(3-(2-(tert-butyl)-5-(2-((1-(methyl-sulfonyl)piperidin-4-yl)amino)-pyrimidin-4-yl)thiazol-4-yl)-2-fluoro-phenyl)-1-methyliso-indoline-2-sulfonamide] | 268 |
| O=S1(=O)CC2(CC(Nc3nccc(-c4sc(C56CC(C5)C6)nc4-c4cccc(NS(=O)(=O)N5CCc6c5cccc6C(F)(F)F)c4F)n3)C2)C1 [Example 42, N-(3-(2-(bicyclo [1.1.1]pentan-1-yl)-5-(2-((2,2-dioxido-2-thiaspiro[3.3]heptan-6-yl)amino)-pyrimidin-4-yl)thiazol-4-yl)-2-fluorophenyl)-4-(trifluoromethyl)-indoline-1-sulfonamide] | 278 |

Molecules with a lower IC50, results first:

| IC50 [nM] | SMILES |
| --- | --- |
| 75.5 | COc1cccc2c1CN(S(=O)(=O)Nc1cccc(-c3nc(C4(C)CCOCC4)sc3-c3ccnc(NC4CC5(C4)CS(=O)(=O)C5)n3)c1F)C2 [Example 2, N-(3-(5-(2-((2,2-dioxido-2-thiaspiro-[3.3]-heptan-6-yl)amino)pyrimidin-4-yl)-2-(4-methyltetrahydro-2H-pyran-4-yl)-thiazol-4-yl)-2-fluorophenyl)-4-methoxyisoindoline-2-sulfonamide] |
| 54 | CN(C)CCN(C)S(=O)(=O)N1CCC(Nc2nccc(-c3sc(C(C)(C)C)nc3-c3cccc(NS(=O)(=O)N4CCc5ccc(C#N)cc54)c3F)n2)CC1 [Example 122, N-(3-(2-(tert-butyl)-5-(2-((1-(N-(2-(dimethylamino)ethyl)-N-methylsulfamoyl)-piperidin-4-yl)amino)-pyrimidin-4-yl)thiazol-4-yl)-2-fluoro-phenyl)-6-cyanoindoline-1-sulfonamide] |
| 99.6 | CC(C)(C)c1nc(-c2cccc(NS(=O)(=O)N3CCc4ccccc43)c2F)c(-c2ccnc(NC3CCN(S(=O)(=O)N4CCNCC4)CC3)n2)s1 [Example 158, N-(3-(2-(tert-butyl)-5-(2-((1-(piperazin-1-ylsulfonyl)piperidin-4-yl)amino)-pyrimidin-4-yl)thiazol-4-yl)-2-fluoro-phenyl)indoline-1-sulfonamide] |
| 191 | CN(C)CCN(C)S(=O)(=O)N1CCC(Nc2nccc(-c3sc(C(C)(C)C)nc3-c3cccc(NS(=O)(=O)N4Cc5ccncc5C4)c3F)n2)CC1 [Example 157, N-(3-(2-(tert-butyl)-5-(2-((1-(N-(2-(dimethyl-amino)ethyl)-N-methylsulfamoyl)piperidin-4-yl)amino)-pyrimidin-4-yl)thiazol-4-yl)-2-fluoro-phenyl)-1,3-dihydro-2H-pyrrolo [3,4-c]-pyridine-2-sulfonamide] |
| 70.8 | O=S1(=O)CC2(CC(Nc3nccc(-c4sc(C56CC(C5)C6)nc4-c4cccc(NS(=O)(=O)N5CCc6ccc(F)cc65)c4F)n3)C2)C1 [Example 29, N-(3-(2-(bicyclo [1.1.1]pentan-1-yl)-5-(2-((2,2-dioxido-2-thiaspiro[3.3]heptan-6-yl)amino)-pyrimidin-4-yl)thiazol-4-yl)-2-fluorophenyl)-6-fluoroindoline-1-sulfonamide] |
| 94 | CC(C)(C)c1nc(-c2cccc(NS(=O)(=O)N3Cc4ccc(F)cc4C3)c2F)c(-c2ccnc(NC3CCN(S(C)(=O)=O)CC3)n2)s1 [Example 70, N-(3-(2-(tert-butyl)-5-(2-((1-(methylsulfonyl)-piperidin-4-yl)amino)-pyrimidin-4-yl)thiazol-4-yl)-2-fluoro-phenyl)-5-fluoroisoindoline-2-sulfonamide] |
| 202 | CN1CCN(S(=O)(=O)Nc2cccc(-c3nc(C(C)(C)C)sc3-c3ccnc(NC4CCN(S(C)(=O)=O)CC4)n3)c2F)c2ccccc21 [Example 99, N-(3-(2-(tert-butyl)-5-(2-((1-(methylsulfonyl)piperidin-4-yl)amino)-pyrimidin-4-yl)thiazol-4-yl)-2-fluoro-phenyl)-4-methyl-3,4-dihydro-quinoxaline-1(2H)-sulfonamide] |
| 125 | CC(C)(C)c1nc(-c2cccc(NS(=O)(=O)N3CCc4c(C#N)cccc43)c2F)c(-c2ccnc(NC3CC4(C3)CS(=O)(=O)C4)n2)s1 [Example 193, N-(3-(2-(tert-butyl)-5-(2-((2,2-dioxido-2-thiaspiro[3.3]heptan-6-yl)amino)-pyrimidin-4-yl)thiazol-4-yl)-2-fluoro-phenyl)-4-cyanoindoline-1-sulfonamide] |
| 75.2 | CN(C)CCN(C)S(=O)(=O)N1CCC(Nc2nccc(-c3sc(C(C)(C)C)nc3-c3cccc(NS(=O)(=O)N4CCc5c(C#N)cccc54)c3F)n2)CC1 [Example 123, N-(3-(2-(tert-butyl)-5-(2-((1-(N-(2-(dimethylamino)ethyl)-N-methylsulfamoyl)-piperidin-4-yl)amino)-pyrimidin-4-yl)thiazol-4-yl)-2-fluoro-phenyl)-4-cyanoindoline-1-sulfonamide] |
| 15.2 | CC1(c2nc(-c3cccc(NS(=O)(=O)N4Cc5cccc(C(F)(F)F)c5C4)c3F)c(-c3ccnc(N[C@H]4[C@@H]5CS(=O)(=O)C[C@@H]54)n3)s2)CCOCC1 [Example 8, N-(3-(5-(2-(((1R,5S, 6r)-3,3-dioxido-3-thiabicyclo[3.1.0]hexan-6-yl)amino)-pyrimidin-4-yl)-2-(4-methyltetrahydro-2H-pyran-4-yl)thiazol-4-yl)-2-fluorophenyl)-4-(trifluoromethyl)-isoindoline-2-sulfonamide] |
